Data on one compound can be found in article PMC9413440, “An Iterative Approach Guides Discovery of the FabI Inhibitor Fabimycin, a Late-Stage Antibiotic Candidate with In Vivo Efficacy against Drug-Resistant Gram-Negative Infections” (ACS Central Science, 2022).

≈ marks a conversion by molar mass, not a printed value.

Series [1] concerns E. coli AR-0055. Kind of series: MIC against infective strain of UTI model. Format: cell-based. To be noted: Escherichia coli, AR0055; extensively drug-resistant, carbapenem-resistant E. coli of the UTI model (AR-0055). On the procedure: II. Materials and Methods for Biological Experiments
S. aureus ATCC 29213 and E. coli MG1655 were obtained from the American Type Culture Collection (ATCC). E. coli BW25113 and E. coli JW5503 were obtained from the Keio Collection. AR-bank strains were obtained from the Centers for Disease Control and Prevention and FDA Antibiotic Resistance Isolate Bank.
Antimicrobial susceptibility tests
Susceptibility testing was performed in biological triplicate, unless noted otherwise, using the micro-dilution broth method as outlined by the Clinical and Laboratory Standards Institute. Bacteria were cultured with cation-adjusted Mueller Hinton broth (Sigma Aldrich, catalogue number: 90922). […]
NH3: m/z 391.2 → 171.0. Fabimycin: m/z 405.3 → 145.3. Power analysis was not used to determine the number of replicates. Error bars represent the standard error of the mean of three biological replicates. All compounds evaluated in biological assays were ≥95% pure.

For series [2], the system named is E. coli MG1655. Kind of series: Time-kill kinetics. To be noted: E. coli MG1655, over 8 h. Format: cell-based, Escherichia coli. The procedure: An overnight culture of E. coli MG1655 was diluted in 5 mL of MH broth to ~5.0 * 10^5 CFU/mL and incubated at 37 °C […]
while shaking for 1 hour. […]
the course of 8 hours. At each time point 100 µL of culture was collected and serially diluted in sterile PBS before plating on drug-free agar plates. Colonies were counted after incubation at 37 °C overnight and CFU/mL calculated. […]
All cells were cultured […]
at 37 °C under a 5% CO2 environment. Cell lines were authenticated by a commercial vendor and inspected visually in house. Cell lines were not tested for Mycoplasma contamination. The media was prepared by the University of Illinois School of Chemical Sciences Cell Media Facility.
H. sapiens HFF-1, A549, and HepG2 cells were seeded (3,000-6,000 cells/well) in a 96-well plate (Greiner Bio-One;

Series [3] deals with human red blood cells. Kind of series: Human red blood cell hemolysis. Format: cell-based. To be noted: 200 μM; 2 hours at 37 °C. The procedure:
drug is tested in duplicate. Compounds were diluted from 10mM DMSO stocks to 5 µM in mouse or human plasma (BioreclamationIVT, Baltimore, MD). The dialysis plate (Rapid Equilibrium Dialysis (RED) device; Thermo Scientific, Waltham, MA) was prepared by adding pH 7.4 phosphate buffer to one chamber of the RED device and dosing solution to the other chamber. The plate was sealed with an adhesive tape and incubated at 37 °C while shaking for 4 hours. Equal volumes of post-dialysis samples were removed from both the plasma and the buffer chambers into separate microcentrifuge tubes, and equal volumes (100µL) of fresh phosphate buffer and plasma were added to the tubes, respectively. […] Percentage binding is determined using the following equation: Binding % = (Concentration of test compound in plasma at equilibrium (Cpe) – Concentration of test compound in buffer at equilibrium (Cb)) / Cpe x 100. […]
Next, 10 µL of washed erythrocyte suspension was added to each tube and sealed. […] Absorbance was measured at 540 nm. […]
from Charles River were used. […] No additional randomization was used to allocate the experimental groups; blinding was not performed for subsequent quantitation.
(§1) The MTD of a single dosage of a given compound was determined before evaluating the MTD of multiple dosages. […]
weeks (single dose). The single-dose MTDs were determined first. […]

The nature of series [4]: in vivo.
From the text: Mouse maximum tolerated dose (MTD) of fabimycin
The protocol to assess fabimycin’s murine MTD when formulated in 20% sulfobutyl ether(7) β-cyclodextrin (SBE-β-CD) in H2O was approved by the Institutional Animal Care and Use Committee (IACUC) at the University of Illinois at Urbana-Champaign (protocol number: 19181). […]
from Charles River were used. Mice were randomly chosen and divided into subsequent groups. No additional randomization was used to allocate the experimental groups; blinding was not performed for subsequent quantitation.
as §1
weeks (single dose). The single-dose MTDs were determined first. For multiple doses, the compound was given by daily […]
highest dosage with acceptable toxicity (<20% weight loss). MTD values shown for Debio-1452-NH3 are as previously reported.3 MTD values for fabimycin when formulated in 17% Cremophor EL/3% SBE-β-CD were drawn from infection models conducted with neutropenic A. baumannii-infected mice (see below). […]
River Licensee) weighing 18 ± 2 grams were used.10 All animals were specific pathogen free. Mice were rendered neutropenic via cyclophosphamide (CP) administration by two intraperitoneal (IP) injections following a standard method for mouse thigh infection models.11 The first CP dose, 150 mg/kg, was administered at four days before infection (Day –4); and the second, 100 mg/kg, at 24 h before infection (Day –1), prior to infection on Day 0.

For the compound `Cc1c(CN(C)C(=O)/C=C/c2cnc3c(c2)CC[C@H](N)C(=O)N3)oc2ccccc12` [fabimycin], the MIC in series [1] was determined as 2 µg/mL (≈ 4.94 µM). Moreover, in series [2], the “rate of killing, time-kill growth curve” value was “not profoundly bactericidal”. Also, in series [3], the “lysis of human red blood cells” value was “nonhemolytic”. In addition, in series [4] (BALB/c, mouse, iv), the MTD turned out to be 100 mg/kg, the MTD at 1 day is 75 mg/kg and the MTD at 3 d was 75 mg/kg. In series [4] (female, C57BL/6, mouse, ip), this compound came in with an MTD at 2 weeks above 200 mg/kg, an MTD at 1 day above 200 mg/kg and an MTD at 5 d above 100 mg/kg.
